Experimental data published in US12650424B2, “Method and system for determining intracellular mediators' activity” (ECOLE POLYTECHNIQUE FEDERALE DE LAUSANNE (EPFL), priority 2020, dated 2026).

How the values were obtained:
[1] = test system: angiotensin receptor; conditions: plasma membranes of HEK cells on beads
[2] = test system: Protease-activated receptor PAR; experiment: dose response of GPCR activation in plasma membranes on immunostained WGA-beads (Gαq release); assay type: biochemical; conditions: plasma membranes of HEK cells on beads; different concentrations
Description: FIG. 3. Schematic representation of the synthetic GPCR screening platform. 1. […] 2. […] 3. […] This leads to fluorescence labeled Gα-protein subunits. 4. […] 5.

Substance | receptor activation triggering release of Gαi [1] | receptor activation triggering release of Gαq [2]
angiotensin | activated in a dose-dependent manner | 
thrombin |  | activated by different concentrations
